Laboratory results reported in publication PMC8588511, “Chromane Derivatives from Underground Parts of Iris tenuifolia and Their In Vitro Antimicrobial, Cytotoxicity and Antiproliferative Evaluation” (Molecules, 2021).
Like-named read-outs stand apart in the source and are kept apart here.

Experiments:
[1] = test system: human lung carcinoma cells (A549); experiment: antiproliferation assay (CellTiter-Blue); format: cell-based
Experimental: (§1) In this assay, K-562 (DSM ACC 10), THP-1 (DSM ACC 16), and HeLa (DSM ACC 57) were maintained in Roswell Park Memorial Institute (RPMI) 1640 medium (Cambrex 12-167F) while HUVEC (ATCC CRL-1730) and A549 (DSM ACC 107) were cultured in Dulbecco’s Modified Eagle’s Medium (DMEM) (Cambrex 12-614F). Cells that were grown in the appropriate cell culture medium were supplemented with 10 mL/L ultraglutamine 1 (Cambrex 17-605E/U1), 550 µL/L (50 mg/mL) gentamicin sulfate (Cambrex 17-518Z), and 10% heat inactivated fetal bovine serum (GIBCO Life Technologies 10270-106) at 37 °C. The tested compounds were dissolved in DMSO, and the cells were seeded in 96-well plates at a density of 1 × 10^4 cells/well. As for the antiproliferative effect of the compounds, the cells were incubated for 72 h, and GI50 values were evaluated to be defined as the concentration causing 50% inhibition of proliferation compared to the untreated control. With regard to the cytotoxic assay, HeLa cells were pre-incubated for 48 h without the test compounds. Then, the cells were exposed with different concentrations of compounds and incubated for 72 h. After that, the adherent HeLa cells were fixed by glutaraldehyde and stained with a 0.05% solutions of methylene blue (SERVA 29198) for 15 min. CC50 was evaluated to be defined as the concentration required for the death of 50% of the cell monolayer as compared to control groups. Under our experimental conditions, the optical density measured from the CellTiter-Blue reagent and methylene blue assay is proportional to the number of viable cells. In this experiment, absorbances were measured at 570 nm against the reference wavelength of 600 nm (CellTiter-Blue assay) and at 660 nm (methylene blue assay). Doxorubicin (Adriamycin®) and imatinib (Gleevec®) were used as positive controls for HUVEC, K-562, and HeLa cells. A repeat determination has been conducted in all experiments, and four replicates were assayed. The calculations of the different values of GI50 and CC50 were performed with software Magellan version 3.00 (Tecan Trading AG, Maennedorf, Switzerland).

[2] = test system: human acute monocytic leukemia cells (THP-1); experiment: antiproliferation assay (CellTiter-Blue); format: cell-based
Experimental: as §1

[3] = test system: human chronic myeloid leukemia cells (K-562); experiment: antiproliferation assay (CellTiter-Blue); format: cell-based; conditions: for GI50: Homo sapiens, read-out: Antiproliferative Effect, GI50 (CI 95%)
Experimental: as §1

[4] = test system: human umbilical vein endothelial cells (HUVEC); experiment: antiproliferation assay (CellTiter-Blue); format: cell-based; conditions: Homo sapiens, 72 h, read-out: Antiproliferative Effect, GI50 (CI 95%)
Experimental: as §1

[5] = cytotoxicity assay (methylene blue); format: cell-based, human; conditions: human, HeLa, 72 h, read-out: Cytotoxicity CC50 (CI 95%)
Experimental: as §1

[6] = test system: Pseudomonas aeruginosa (K799/61 B9); experiment: agar diffusion antimicrobial assay; format: cell-based; conditions: Pseudomonas aeruginosa (K799/61 B9); 50 μL of 1 mg/mL in DMSO, 18 h; ciprofloxacin 5 µg/mL
Experimental: (§2) Compounds 1, 2, 3, 5, 9, and 10 were tested for their antimicrobial activities against S. aureus (JMRC:STI 10760), B. subtilis (JMRC:STI 10880), S. aureus MRSA (JMRC: ST 33793) E. faecalis VRE (JMRC: ST 33700), E. coli (JMRC:ST 33699), P. aeruginosa (JMRC:ST 33771), P. aeruginosa (JMRC:ST 33772), M. vaccae (JMRC:STI 10670), S. salmonicolor (JMRC:ST 35974), C. albicans (JMRC:STI 25000), and P. notatum (JMRC:STI 50164)) using agar diffusion assay as previously published. Strains were obtained from the Jena Microbial Resource Collection (JMRC). The bacteria were cultivated on standard I nutrient agar in Petri dishes at 37 °C. Antifungal bioassays were conducted at 30 °C using the basidiomycetous yeast S. salmonicolor and the filamentous ascomycete P. notatum, which were cultivated on malt agar, and the ascomycetous yeast C. albicans, which was cultivated on yeast morphology agar. After inoculation of the test organisms, a disc (9 mm in diameter) was removed from the center of the Petri dish and 50 μL of the test solution (1 mg/mL in DMSO) was added to the cavity. After 18 h of incubation, the inhibiting areola were measured and documented as diameters in mm. Ciprofloxacin (5 µg/mL in deionized water) and amphotericin B (10 µg/mL in DMSO/MeOH 1:1) were used as reference substances against bacterial and fungal strains, respectively.

[7] = test system: Staphylococcus aureus (MRSA 134/94 R9); experiment: agar diffusion antimicrobial assay; format: cell-based; conditions: 50 μL of 1 mg/mL in DMSO, 18 h, ciprofloxacin 5 µg/mL
Experimental: as §2

[8] = test system: Enterococcus faecalis (VRE 1528 R10); experiment: agar diffusion antimicrobial assay; format: cell-based; conditions: for zone of inhibition at 1000 µg/mL: Enterococcus faecalis (VRE 1528 R10), 50 μL of 1 mg/mL in DMSO, 18 h, ciprofloxacin 5 µg/mL, read-out: Inhibition Zone of Test Microorganism; for antibacterial activity in words: Enterococcus faecalis VRE, agar diffusion
Experimental: as §2

[9] = test system: Pseudomonas aeruginosa (SG137 B7); experiment: agar diffusion antimicrobial assay; format: cell-based; conditions: 50 μL of 1 mg/mL in DMSO, 18 h, ciprofloxacin 5 µg/mL
Experimental: as §2

[10] = test system: Bacillus subtilis (6633 B1); experiment: agar diffusion antimicrobial assay; format: cell-based; conditions: for zone of inhibition at 1000 µg/mL: Bacillus subtilis (6633 B1), 50 μL of 1 mg/mL in DMSO, 18 h, ciprofloxacin 5 µg/mL, read-out: Inhibition Zone of Test Microorganism
Experimental: as §2

[11] = test system: Mycobacterium vaccae (10670 M4); experiment: agar diffusion antimicrobial assay; format: cell-based; conditions: for antibacterial activity in words: Mycobacterium vaccae, agar diffusion, compared to ciprofloxacin; for zone of inhibition at 1000 µg/mL: Mycolicibacterium vaccae, Mycobacterium vaccae (10670 M4), 50 μL of 1 mg/mL in DMSO, 18 h, ciprofloxacin 5 µg/mL, read-out: Inhibition Zone of Test Microorganism
Experimental: as §2

[12] = test system: three fungi and eight bacterial strains; experiment: agar diffusion assay, whole panel; format: cell-based; conditions: eleven microorganisms
Experimental: as §2

[13] = test system: HUVEC, K-562, THP-1, A549, and HeLa cell lines; experiment: antiproliferative and cytotoxicity assays, all applied cell lines; format: cell-based
Experimental: The tested compounds were dissolved in DMSO, and the cells were seeded in 96-well plates at a density of 1 × 10^4 cells/well. […] With regard to the cytotoxic assay, HeLa cells were pre-incubated for 48 h without the test compounds. Then, the cells were exposed with different concentrations of compounds and incubated for 72 h. […] Under our experimental conditions, the optical density measured from the CellTiter-Blue reagent and methylene blue assay is proportional to the number of viable cells. In this experiment, absorbances were measured at 570 nm against the reference wavelength of 600 nm (CellTiter-Blue assay) and at 660 nm (methylene blue assay). […] A repeat determination has been conducted in all experiments, and four replicates were assayed. The calculations of the different values of GI50 and CC50 were performed with software Magellan version 3.00 (Tecan Trading AG, Maennedorf, Switzerland).

[14] = Homo sapiens, A549, 72 h; read-out: Antiproliferative Effect, GI50 (CI 95%)
[15] = Homo sapiens, THP-1, 72 h; read-out: Antiproliferative Effect, GI50 (CI 95%)

SMILES	GI50 ([3]; K562, K-562, 72 h) [µM]	GI50 [1, 14] [µM]	GI50 [2, 15] [µM]	GI50 [4] [µM]	CC50 at 72 h ([5]; HeLa cells (DSM ACC 57)) [µM]	Inhibition Zone of Test Microorganism [6]	Inhibition Zone of Test Microorganism [7]	zone of inhibition at 1000 µg/mL [8] [mm]	antibacterial activity in words [8]	Inhibition Zone of Test Microorganism [9]	antiproliferative / cytotoxic effect in words [13]	other results
O=C1C=CCCC(O)C2CC(=O)c3c(O)cc(cc3O2)OC2OC(CO1)C(O)C(O)C2O (stereo not drawn) [Compound 1, Moniristenulide]	> 100	> 100	> 100	> 100	> 100	-	-	13	selective activity	-		
COc1c2c(cc3c1C1CC(O3)c3ccccc3O1)OCO2 (stereo not drawn) [Compound 2, 5-Methoxy-6,7-methylenedioxy-4-O-2′-cycloflavan]	31.5	> 100	29.2	35.2	42.6	-	-	14	demonstrated activity	-		zone of inhibition at 1000 µg/mL [10]: 12 mm; antibacterial activity in words ([10]; Bacillus subtilis, agar diffusion, compared to ciprofloxacin): demonstrated activity; antibacterial activity in words [11]: demonstrated activity; zone of inhibition at 1000 µg/mL [11]: 17 mm
O=C1C[C@@H](c2cccc(O)c2O)Oc2cc(O)cc(O)c21 [Compound 3, (2S)-5,7,2′,3′-Tetrahydroxyflavanone]	32.3	> 100	> 100	> 100	> 100	-	-	17	highest antibacterial activity	-		antimicrobial activity over the panel in words [12]: most active; antiproliferative activity in words ([3]; K-562): selective antiproliferative inhibition effect; zone of inhibition at 1000 µg/mL [10]: 12 mm; antibacterial activity in words [11]: highest antibacterial activity; zone of inhibition at 1000 µg/mL [11]: 23 mm
COc1cc2occ(-c3ccccc3OC3OC(CO)C(O)C(O)C3O)c(=O)c2c(O)c1OC [Compound 9, 5-Hydroxy-6,7-dimethoxyisoflavone-2′-O-β-D-glucopyranoside]	> 100	> 100	> 100	> 100	> 100	-	-	13	selective activity	-	completely not effective	
CC[C@H](CC[C@@H](C)[C@H]1CC[C@H]2[C@@H]3CC=C4C[C@@H](O)CC[C@]4(C)[C@H]3CC[C@]12C)C(C)C [Compound 12, β-Sitosterol]				> 100							neither an antiproliferative effect nor a cytotoxicity	GI50 ([1]; Homo sapiens, A549, 72 h, read-out: Antiproliferative Effect, GI50 (CI 95%)): > 100 µM; GI50 ([2]; Homo sapiens, THP-1, 72 h, read-out: Antiproliferative Effect, GI50 (CI 95%)): > 100 µM; GI50 ([3]; K562, 72 h): > 100 µM; CC50 at 72 h [5]: > 100 µM
COc1cccc2c1C(=O)c1c(O)c3c(c(O)c1C2=O)C[C@@](O)(C(=O)CO)C[C@@H]3O[C@H]1C[C@H](N)[C@H](O)[C@H](C)O1 [Doxorubicin, reference compound]	0.13			0.13	0.48							
Cc1ccc(NC(=O)c2ccc(CN3CCN(C)CC3)cc2)cc1Nc1nccc(-c2cccnc2)n1 [Imatinib, imatinib, reference compound]	0.2			22.1	78.6							

Further lines, with some results ahead:

GI50 ([3]; K562, K-562, 72 h) [µM]	SMILES	GI50 [1, 14] [µM]	GI50 [2, 15] [µM]	GI50 [4] [µM]	CC50 at 72 h ([5]; HeLa cells (DSM ACC 57)) [µM]	Inhibition Zone of Test Microorganism [6]	Inhibition Zone of Test Microorganism [7]	zone of inhibition at 1000 µg/mL [8] [mm]	antibacterial activity in words [8]	Inhibition Zone of Test Microorganism [9]	antiproliferative / cytotoxic effect in words [13]	other results
48.7	O=C1CC(c2ccccc2O)Oc2cc3c(c(O)c21)OCO3 (stereo not drawn) [Compound 4, 5,2′-Dihydroxy-6,7-methylenedioxyflavanone]	81	16	73.3	> 100							
56	COc1cc(O)c2c(c1)OC(c1cccc(O)c1O)CC2=O (stereo not drawn) [Compound 6, 5,2′,3′-Trihydroxy-7-methoxyflavanone]	70.9	16.9	68.2	> 100							
97.6	COc1cc(O)c2c(c1)OC(c1cccc(O)c1OC)C(O)C2=O (stereo not drawn) [Compound 7, 3,5,3′-Trihydroxy-7,2′-dimethoxyflavanone]	> 100	> 100	> 100	> 100						reduced or no inhibitory effects	
> 100	COc1ccccc1-c1coc2cc(O)c(OC)c(O)c2c1=O [Compound 8, 5,7-Dihydroxy-6,2′-dimethoxyisoflavone]	> 100	> 100	> 100	> 100						reduced or no inhibitory effects	
